Reference: patent publication US10597388B2, “Pyridazinone herbicides” (FMC CORPORATION, priority 2014, dated 2020)

Key:
Experiment in all cases: Test D controlled growth environment herbicide test, pre- and postemergence
Format in all cases: in vivo
[1] = test system: bluegrass (annual bluegrass, Poa annua)
How it was run: (§1)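 Species sown in silt loam and sprayed preemergence, or grown in peat-based medium to 2–18 cm (1- to 4-leaf stage) and sprayed postemergence, with compounds in non-phytotoxic solvent plus surfactant. Visual injury scored versus controls after 14–21 d in a controlled environment, 0 (no effect) to 100 (complete control).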

[2] = test system: Russian thistle (Salsola kali)
How it was run: as §1

[3] = test system: canarygrass (Phalaris minor)
How it was run: as §1

[4] = test system: oilseed rape (Brassica napus)
How it was run: as §1

[5] = test system: buckwheat, wild (wild buckwheat, Polygonum convolvulus)
How it was run: as §1

[6] = test system: pigweed (Amaranthus retroflexus)
How it was run: as §1

kochia (Kochia scoparia) = test system: kochia (Kochia scoparia)
How it was run: as §1

[7] = test system: field violet (Viola arvensis)
How it was run: as §1

[8] = test system: speedwell (bird's-eye speedwell, Veronica persica)
How it was run: as §1

[9] = test system: windgrass (Apera spica-venti)
How it was run: as §1

[10] = test system: mustard, wild (wild mustard, Sinapis arvensis)
How it was run: as §1

[11] = test system: radish, wild (wild radish, Raphanus raphanistrum)
How it was run: as §1

[12] = test system: galium (catchweed bedstraw, Galium aparine)
How it was run: as §1

[13] = Postemergence, 31 g ai/ha, scale 0 to 100 (0 no effect, 100 complete control)
[14] = Postemergence, 125 g ai/ha, visual rating on scale 0 (no effect) to 100 (complete control), 14 to 21 d
[15] = Postemergence, 250 g ai/ha, scale 0 to 100 (0 no effect, 100 complete control)
[16] = Preemergence, 62 g ai/ha, scale 0 to 100 (0 no effect, 100 complete control)
[17] = Preemergence, 125 g ai/ha, scale 0 to 100 (0 no effect, 100 complete control)
[18] = Preemergence, 250 g ai/ha, scale 0 to 100 (0 no effect, 100 complete control)
[19] = postemergence, 62 g ai/ha, scale 0 to 100, 0 no effect, 100 complete control

Cc1ccc(-c2c(O)c(Br)nn(C)c2=O)c2ccccc12 [Compound 52]
0: Plant response rating (scale of 0 to 100), Bluegrass ([1]; Preemergence, 31 g ai/ha) | Plant response rating (scale of 0 to 100), Russian Thistle ([2]; Preemergence, 31 g ai/ha) | Plant response rating, Russian Thistle [2, 16] | Plant response rating, Russian Thistle [2, 17] | Plant response rating, Russian Thistle [2, 18] | Canarygrass plant response rating [3, 13] | Plant response rating, Canarygrass [3, 14] | Plant response rating, Canarygrass [3, 15] | Plant response rating, Canarygrass [3, 19] | Oilseed Rape plant response rating [4, 13] | Plant response rating (scale of 0 to 100), Oilseed Rape ([4]; Preemergence, 31 g ai/ha) | Plant response rating, Oilseed Rape [4, 16] | Plant response rating, Oilseed Rape [4, 17] | Kochia plant response rating (kochia (Kochia scoparia); [13]) | Plant response rating (scale of 0 to 100), Field Violet ([7]; Preemergence, 31 g ai/ha) | Windgrass plant response rating [9, 13] | Plant response rating (scale of 0 to 100), Radish, Wild ([11]; Preemergence, 31 g ai/ha)
100: Buckwheat, Wild plant response rating [5, 13] | Plant response rating, Buckwheat, Wild [5, 14] | Plant response rating, Buckwheat, Wild [5, 15] | Plant response rating, Buckwheat, Wild [5, 18] | Plant response rating, Buckwheat, Wild [5, 19] | Plant response rating, Speedwell [8, 14] | Plant response rating, Speedwell [8, 15] | Plant response rating, Speedwell [8, 16] | Plant response rating, Speedwell [8, 18] | Plant response rating, Mustard, Wild [10, 15] | Plant response rating, Mustard, Wild [10, 16] | Plant response rating, Galium [12, 15] | Plant response rating, Galium [12, 16]
50: Plant response rating (scale of 0 to 100), Speedwell ([8]; Preemergence, 31 g ai/ha)
45: Plant response rating, Russian Thistle [2, 14]
95: Plant response rating, Speedwell [8, 17] | Plant response rating, Galium [12, 18] | Plant response rating, Galium [12, 19]
25: Plant response rating, Bluegrass [1, 17] | Plant response rating, Canarygrass [3, 16] | Plant response rating, Canarygrass [3, 17]
40: Plant response rating, Pigweed [6, 19] | Plant response rating, Kochia (kochia (Kochia scoparia); [17])
5: Bluegrass plant response rating [1, 13] | Plant response rating, Bluegrass [1, 19] | Plant response rating, Oilseed Rape [4, 19] | Plant response rating, Windgrass [9, 14] | Plant response rating, Windgrass [9, 15] | Plant response rating, Windgrass [9, 19]
80: Plant response rating, Oilseed Rape [4, 15] | Plant response rating, Pigweed [6, 15] | Plant response rating, Radish, Wild [11, 14]
90: Plant response rating, Pigweed [6, 18] | Plant response rating, Kochia (kochia (Kochia scoparia); [18]) | Plant response rating, Mustard, Wild [10, 14] | Plant response rating, Mustard, Wild [10, 17] | Galium plant response rating [12, 13] | Plant response rating, Galium [12, 17]
15: Plant response rating (scale of 0 to 100), Kochia (kochia (Kochia scoparia); Preemergence, 31 g ai/ha) | Plant response rating, Radish, Wild [11, 16]
65: Plant response rating, Oilseed Rape [4, 14] | Plant response rating, Pigweed [6, 17] | Plant response rating, Kochia (kochia (Kochia scoparia); [15]) | Plant response rating, Field Violet [7, 19] | Plant response rating, Radish, Wild [11, 19]
30: Plant response rating, Bluegrass [1, 14] | Plant response rating, Bluegrass [1, 15]
85: Plant response rating, Field Violet [7, 18] | Plant response rating, Speedwell [8, 19] | Plant response rating (scale of 0 to 100), Mustard, Wild ([10]; Preemergence, 31 g ai/ha) | Plant response rating, Radish, Wild [11, 15]
70: Speedwell plant response rating [8, 13] | Plant response rating (scale of 0 to 100), Galium ([12]; Preemergence, 31 g ai/ha)
10: Plant response rating, Bluegrass [1, 16] | Plant response rating, Field Violet [7, 16] | Plant response rating (scale of 0 to 100), Windgrass ([9]; Preemergence, 31 g ai/ha) | Plant response rating, Windgrass [9, 16] | Plant response rating, Windgrass [9, 17] | Plant response rating, Windgrass [9, 18]
20: Russian Thistle plant response rating [2, 13] | Plant response rating (scale of 0 to 100), Canarygrass ([3]; Preemergence, 31 g ai/ha) | Plant response rating (scale of 0 to 100), Buckwheat, Wild ([5]; Preemergence, 31 g ai/ha) | Plant response rating, Buckwheat, Wild [5, 16] | Plant response rating, Kochia (kochia (Kochia scoparia); [19]) | Mustard, Wild plant response rating [10, 13]
98: Plant response rating, Mustard, Wild [10, 18] | Plant response rating, Galium [12, 14]
35: Plant response rating, Bluegrass [1, 18] | Plant response rating, Russian Thistle [2, 19] | Plant response rating, Canarygrass [3, 18] | Pigweed plant response rating [6, 13] | Plant response rating, Kochia (kochia (Kochia scoparia); [16]) | Field Violet plant response rating [7, 13] | Radish, Wild plant response rating [11, 13]
55: Plant response rating, Russian Thistle [2, 15] | Plant response rating, Oilseed Rape [4, 18] | Plant response rating, Buckwheat, Wild [5, 17] | Plant response rating, Pigweed [6, 16] | Plant response rating, Kochia (kochia (Kochia scoparia); [14]) | Plant response rating, Radish, Wild [11, 17]
60: Plant response rating (scale of 0 to 100), Pigweed ([6]; Preemergence, 31 g ai/ha)
75: Plant response rating, Pigweed [6, 14] | Plant response rating, Field Violet [7, 14] | Plant response rating, Field Violet [7, 15] | Plant response rating, Field Violet [7, 17] | Plant response rating, Mustard, Wild [10, 19] | Plant response rating, Radish, Wild [11, 18]
